Test system: strains of Enterobacteriaceae producing various carbapenemases (class A, D and B; 104 strains)
Assay: Antibiotics potentiation by Compound 27 (MIC; meropenem, doripenem, ertapenem, cefepime)
Type: cell-based
Details: + 27 = with Compound 27 at fixed 4 μg/ml

For `C[C@@H](O)[C@H]1C(=O)N2C(C(=O)O)=C(S[C@@H]3CN[C@H](CNS(N)(=O)=O)C3)[C@H](C)[C@H]12` [D], the MIC (strain CF1012 Citrobacter freundii (KPC-2)) was “Y (MIC of 1 μg/mL to 10 μg/mL)”, the MIC (strain CF1021 Citrobacter freundii (CMY-type; VIM-1)) was “Y (MIC of 1 μg/mL to 10 μg/mL)” and the MIC (strain CF1022 Citrobacter freundii (SHV-12(2be), TEM-OSBL(2b); IMP-8)) was “Y (MIC of 1 μg/mL to 10 μg/mL)”. The MIC (strain CF1023 Citrobacter freundii (SHV-12(2be), TEM-OSBL(2b); CTX-M-3; CMY-34; NDM-1)) was “Z (MIC of greater than 10 μg/mL)”, the MIC (strain CL1080 Enterobacter cloacae (IMP-1)) was “X (MIC of less than 1 μg/mL)” and the MIC (strain EA1019 Enterobacter aerogenes (SHV-5, VIM-1)) was “Z (MIC of greater than 10 μg/mL)”. For the same compound, the MIC (strain EC1007 Escherichia coli (KPC-3)) was “X (MIC of less than 1 μg/mL)”, the MIC (strain EC1061 Escherichia coli (NDM-1, CMY-6)) was “Z (MIC of greater than 10 μg/mL)” and the MIC (strain EC1062 Escherichia coli (OXA-48, CTX-M-15)) was “X (MIC of less than 1 μg/mL)”. The MIC (strain EC1064 Escherichia coli (NDM-1, CMY-6, CTX-M-15)) was “Z (MIC of greater than 10 μg/mL)”, the MIC (strain EC1065 Escherichia coli (IMP-1)) was “Y (MIC of 1 μg/mL to 10 μg/mL)” and the MIC (strain EC1068 Escherichia coli (VIM-1)) was “Z (MIC of greater than 10 μg/mL)”. The MIC (strain EC1069 Escherichia coli (CTX-M-27; NDM-1)) was “Z (MIC of greater than 10 μg/mL)”, the MIC (strain EC1070 Escherichia coli (TEM-OSBL(2b); CMY-42; NDM-5)) was “Z (MIC of greater than 10 μg/mL)” and the MIC (strain EC1072 Escherichia coli (CTX-M-3; NDM-1)) was “Z (MIC of greater than 10 μg/mL)”. The MIC (strain ECL1004 Enterobacter cloacae (NMC-A)) was “Y (MIC of 1 μg/mL to 10 μg/mL)”, the MIC (strain ECL1026 Enterobacter cloacae (KPC-2, TEM-1)) was “Y (MIC of 1 μg/mL to 10 μg/mL)” and the MIC (strain ECL1036 Enterobacter cloacae (KPC-3, TEM-1)) was “Y (MIC of 1 μg/mL to 10 μg/mL)”. The MIC (strain ECL1045 Enterobacter cloacae (VIM-1)) was “Y (MIC of 1 μg/mL to 10 μg/mL)”, the MIC (strain ECL1055 Enterobacter cloacae (KPC-3, TEM)) was “Y (MIC of 1 μg/mL to 10 μg/mL)” and the MIC (strain ECL1057 Enterobacter cloacae (NDM-1, TEM-1, CTX-M-15)) was “Z (MIC of greater than 10 μg/mL)”. For the same compound, the MIC (strain ECL1058 Enterobacter cloacae (KPC-3, SHV-11, TEM-1)) was “Z (MIC of greater than 10 μg/mL)”, the MIC (strain ECL1059 Enterobacter cloacae (KPC-3, SHV-12, TEM-1)) was “Y (MIC of 1 μg/mL to 10 μg/mL)” and the MIC (strain ECL1061 Enterobacter cloacae (KPC-3, Hyper AmpC expression)) was “Y (MIC of 1 μg/mL to 10 μg/mL)”. The MIC (strain ECL1082 Enterobacter cloacae (VIM-1)) was “Z (MIC of greater than 10 μg/mL)”, the MIC (strain ECL1084 Enterobacter cloacae (CTX-M-15; ACT-16; NDM-1)) was “Z (MIC of greater than 10 μg/mL)” and the MIC (strain ECL1085 Enterobacter cloacae (SHV-31(2be), TEM-1(2b); CTX-M-15; NDM-1)) was “Z (MIC of greater than 10 μg/mL)”. The MIC (strain ECL1086 Enterobacter cloacae (VIM-31, OXA-48(c))) was “Y (MIC of 1 μg/mL to 10 μg/mL)”, the MIC (strain ECL1087 Enterobacter cloacae (VIM-1)) was “Z (MIC of greater than 10 μg/mL)” and the MIC (strain ECL1088 Enterobacter cloacae (TEM-1(2b); CTX-M-14; ACT-type; VIM-1)) was “Z (MIC of greater than 10 μg/mL)”. For the same compound, the MIC (strain ECL1089 Enterobacter cloacae (ACT-type; IMP-1)) was “Z (MIC of greater than 10 μg/mL)”, the MIC (strain ECL1090 Enterobacter cloacae (TEM-1(2b); CTX-M-22; ACT-type; IMP-8)) was “Y (MIC of 1 μg/mL to 10 μg/mL)” and the MIC (strain ECL1091 Enterobacter cloacae (VIM-1)) was “Z (MIC of greater than 10 μg/mL)”. The MIC (strain ECL1092 Enterobacter cloacae (TEM-OSBL(2b); ACT-32; VIM-1)) was “Y (MIC of 1 μg/mL to 10 μg/mL)”, the MIC (strain ECL1093 Enterobacter cloacae (TEM-OSBL(2b); ACT-32; VIM-1)) was “Y (MIC of 1 μg/mL to 10 μg/mL)” and the MIC (strain ECL1094 Enterobacter cloacae (VIM-1)) was “Z (MIC of greater than 10 μg/mL)”. For the same compound, the MIC (strain ECL1096 Enterobacter cloacae (CMY-4, VIM-4, OXA-48(c))) was “Y (MIC of 1 μg/mL to 10 μg/mL)”, the MIC (strain ECL1097 Enterobacter cloacae (SHV-31(2be), TEM-OSBL(2b); CTX-M-15; ACT-31; NDM-1)) was “Z (MIC of greater than 10 μg/mL)” and the MIC (strain ECL1098 Enterobacter cloacae (TEM-OSBL(2b); DHA-1; ACT-16; NDM-1)) was “Z (MIC of greater than 10 μg/mL)”. For the same compound, the MIC (strain KP1001 Klebsiella pneumoniae (KPC TEM SHV)) was “Z (MIC of greater than 10 μg/mL)”, the MIC (strain KP1002 Klebsiella pneumoniae (KPC TEM SHV)) was “Y (MIC of 1 μg/mL to 10 μg/mL)” and the MIC (strain KP1003 Klebsiella pneumoniae (KPC TEM SHV)) was “Y (MIC of 1 μg/mL to 10 μg/mL)”. For the same compound, the MIC (strain KP1004 Klebsiella pneumoniae (KPC-2, TEM-1, SHV-11)) was “Y (MIC of 1 μg/mL to 10 μg/mL)”, the MIC (strain KP1008 Klebsiella pneumoniae (KPC-2)) was “X (MIC of less than 1 μg/mL)” and the MIC (strain KP1014 Klebsiella pneumoniae (VIM-1, TEM, SHV)) was “Z (MIC of greater than 10 μg/mL)”. For the same compound, the MIC (strain KP1054 Klebsiella pneumoniae (VIM-1, SHV-11)) was “Z (MIC of greater than 10 μg/mL)”, the MIC (strain KP1059 Klebsiella pneumoniae (VIM-1, SHV-11)) was “Z (MIC of greater than 10 μg/mL)” and the MIC (strain KP1061 Klebsiella pneumoniae (KPC-3, SHV-11, TEM-1)) was “Z (MIC of greater than 10 μg/mL)”. For the same compound, the MIC (strain KP1064 Klebsiella pneumoniae (KPC-2, SHV-11, TEM-1)) was “Z (MIC of greater than 10 μg/mL)”, the MIC (strain KP1065 Klebsiella pneumoniae (VIM-1, SHV-11)) was “Y (MIC of 1 μg/mL to 10 μg/mL)” and the MIC (strain KP1070 Klebsiella pneumoniae (KPC-2, SHV-11, TEM-1)) was “Y (MIC of 1 μg/mL to 10 μg/mL)”. For the same compound, the MIC (strain KP1074 Klebsiella pneumoniae (KPC-3, SHV-11, TEM)) was “Z (MIC of greater than 10 μg/mL)”.
